Measurements as given in US7528113B2, “Method and composition for the treatment of adenoviral ocular infections” (priority 1999, dated 2009).
Where two headings read alike, the source gives them in different places.

Tests used:
[1] = tested on: Ad37 binding to Chang C conjunctival cells; assay: microbe, parasite or virus in culture; format: cell-based, adenovirus; details: for Interference with the binding of Ad37 to sialic acid expressing cells: 160 mmol concentrations
Excerpt: (§1) Interference of the binding of adenovirus subtype 37 (Ad37) with the first step cellular receptor was studied using dextran sulphate and glycosaminoglycans, such as heparin and heparan sulphates. […] It was thus confirmed that the cellular receptor for Ad37 is (2-3) linked sialic acid.
The effect of glycoproteins to inhibit Ad37 binding to Chang C conjunctival cells was investigated using the following glycoproteins: fetuin, mucin, orosomucoid and glycophorin A. The results are presented in table 2.
The inventors confirmed the inventive concept by determining the inhibition achieved with different carbohydrates, using adenovirus type 37 and Chang C conjunctival cells.
All data are visualised as the dose required for 50% inhibition of adenovirus binding and the maximum inhibition of adenovirus binding.

[2] = tested on: adenovirus subtype 37 (Ad37); assay: Interference of the binding of Ad37 with the first step cellular receptor; format: cell-based
Excerpt: as §1

Ad37 virus = assay: Binding of 125I-labeled Ad37 to glycosphingolipids; design: species or system adenovirus; details: preliminary results, thin layer chromatography, FIG. 3
[3] = tested on: adenovirus type 19a binding to Chang C conjunctival cells; assay: Inhibition of adenovirus type 19a binding to Chang C conjunctival cells; format: cell-based
[4] = tested on: adenovirus type 8 binding to Chang C conjunctival cells; assay: Inhibition of adenovirus type 8 binding to Chang C conjunctival cells; format: cell-based
[5] = tested on: Ad37 binding to Chinese hamster ovary cells; assay: Ad37 binding to Chinese hamster ovary cells that do not express CAR; format: cell-based, adenovirus; details: Chinese hamster ovary cells not expressing CAR; see FIG. 2
Excerpt: as §1

[6] = tested on: Ad37 binding to human epithelial A549 cells; assay: Ad37 binding to A549 cells; format: cell-based, adenovirus; details: pre-treatment / pre-incubation of the cells; FIG. 2
Excerpt: Binding to human epithelial A549 cells was investigated. […] This means that Ad8, Ad19a and Ad37, but not types 9 and 19p infect A549 cells by binding to cell surface sialic acid.

adenoviral adhesion = assay: Inhibition of adenoviral adhesion by multivalent ligands; format: cell-based, adenovirus; details: multivalent ligand
Excerpt: Monovalent analogues of the sialic acid receptor will have to cover most of the twelve fibres at each of the twelve comers of the virus particle to enable efficient blocking of the binding of the virus particle to the host cell receptors. Divalent or multivalent analogues will, by interacting with a few fibres, enable aggregation of numerous virus particles into a lattice. This will hamper or inhibit virus infection with a higher efficiency, i.e. more inhibition per μmole of ligand.

[7] = Chang cells, sialylated glycoproteins, read-out: Concentration of glycoprotein causing 50% inhibition of Ad37 binding
[8] = read-out: Concentration of carbohydrate causing 50% inhibition of Ad37 binding
[9] = Chang cells, sialic acid carbohydrates, read-out: Concentration of carbohydrate causing 50% inhibition of Ad37 binding

## OC[C@H]1O[C@@H](O[C@H]2[C@H](O)[C@@H](O)C(O)O[C@@H]2CO)[C@H](O)[C@@H](O)[C@H]1O (stereo partly drawn) [lactose, reference compound]
[1]
  Interference with the binding of Ad37 to sialic acid expressing cells: did not interfere with the binding

## heparan sulphates
[2]
  Impairment of Ad37 binding by negatively charged molecules: could impair binding of the virus

## Orosomucoid: sialylated, negatively charged glycoprotein
[1]; 500 μM glycoprotein
  Maximal inhibition of Ad37 binding in %: 77%
[1]; [7]
  IC50: 75 µM

## CC(=O)N[C@H]1[C@H]([C@H](O)[C@H](O)CO)OC(O)(C(=O)O)C[C@@H]1O (stereo partly drawn) [N-acetyl-neuraminic acid]
[1]
  Inhibiting binding of Ad37 to sialic acid-expressing cells (in words): effective in inhibiting binding
[1]; 160 mM carbohydrate
  Maximal inhibition of Ad37 binding in %: 82%
[1]; [8]
  IC50: 18000 µM

## N-acetyl-neuraminyllactose
[1]
  Inhibiting binding of Ad37 to sialic acid-expressing cells (in words): effective in inhibiting binding
[1]; 160 mM carbohydrate
  Maximal inhibition of Ad37 binding in %: 95%
[1]; 160 mM concentration
  Inhibition of Ad37 binding (in words): almost total inhibition
[1]; [9]
  IC50: 5000 µM

## NeuAcα3Galβ3GalNAcβ4(NeuAcα3)Galβ4Glcβ1 [NeuAc-GD1a]
Ad37 virus
  Ad37 virus binding to the structure: effective for Ad37 virus binding

## CC(=O)N[C@H]1[C@H]([C@H](O)[C@H](O)CO)O[C@@](O[C@H]2[C@@H](O)[C@@H](CO)O[C@@H](O[C@H]3[C@H](O)[C@@H](NC(C)=O)C(O)O[C@@H]3CO)[C@@H]2O)(C(=O)O)C[C@@H]1O (stereo partly drawn) [α-NeuNAc-(2-3)-β-D-Gal-(1-4)-D-GlcNAc]
[1]
  Inhibiting binding of Ad37 to sialic acid-expressing cells (in words): effective in inhibiting binding
[1]; [9]
  IC50: 5000 µM

## heparin
[2]
  Impairment of Ad37 binding by negatively charged molecules: could impair binding of the virus
[3]; 670 μM heparin
  Maximal inhibition of binding in %: 90%
[3]; Chang C conjunctival cells, read-out: Concentration of heparin causing 50% inhibition of binding
  IC50: 25 µM
[4]; adenovirus type 8, 670 μM heparin
  Maximal inhibition of binding in %: 92%
[4]; adenovirus type 8, Chang C conjunctival cells, read-out: Concentration of heparin causing 50% inhibition of binding
  IC50: 30 µM
[1]; adenovirus type 37, 670 μM heparin
  Maximal inhibition of binding in %: 87%
[1]; adenovirus type 37, Chang C conjunctival cells, read-out: Concentration of heparin causing 50% inhibition of binding
  IC50: 20 µM

## GalNAcβ4(NeuAcα8NeuAcα3)Galβ4Glcβ1 [NeuAc-GD2]
Ad37 virus
  Ad37 virus binding to the structure: effective for Ad37 virus binding

## CC(=O)NC1C(O)CC(OC2C(O)C(CO)OC(OC3C(O)C(CO)OC(O)C3NC(C)=O)C2O)(C(=O)O)OC1C(O)C(O)CO [α-NeuAc-(2-3)-β-D-Gal-(1-3)-β-GalNAc]
Ad37 virus
  Ad37 virus binding to the structure: effective for Ad37 virus binding

## O=C(CO)N[C@H]1[C@H]([C@H](O)[C@H](O)CO)OC(O)(C(=O)O)C[C@@H]1O (stereo partly drawn) [N-glycolyl-neuraminic acid]
[1]
  Inhibiting binding of Ad37 to sialic acid-expressing cells (in words): effective in inhibiting binding
[1]; 160 mM carbohydrate
  Maximal inhibition of Ad37 binding in %: 91%
[1]; [8]
  IC50: 40000 µM

## wheat germ agglutinin
[5]
  Inhibition/blocking of Ad37 binding: blocked the binding
[6]
  Inhibition of Ad37 binding to A549 cells: is inhibited

## dextran sulphate
[2]
  Impairment of Ad37 binding by negatively charged molecules: could impair binding of the virus

## CC(=O)N[C@H]1[C@H]([C@H](O)[C@H](O)CO)O[C@@](O[C@H]2[C@@H](O)[C@@H](CO)O[C@@H](O[C@H]3[C@H](O[C@@H]4O[C@@H](C)[C@@H](O)[C@@H](O)[C@@H]4O)[C@@H](O)C(O)O[C@@H]3CO)[C@@H]2O)(C(=O)O)C[C@@H]1O (stereo partly drawn) [N-Acetyl Neuraminyl-3-Fucosyl Lactose, α-Neu-5-Ac-(2-3)-β-D-Gal(1-4)-(α-Fuc-(1-3))-Glc]
[1]
  Inhibiting binding of Ad37 to sialic acid-expressing cells (in words): effective in inhibiting binding
[1]; [9]
  IC50: 5000 µM

## CC(=O)N[C@@H]1[C@@H](O)[C@@H](O)[C@@H](CO)O[C@@H]1O [acetyl galactose amine, reference compound]
[1]
  Interference with the binding of Ad37 to sialic acid expressing cells: did not interfere with the binding

## Colominic acid
[1]
  Inhibiting binding of Ad37 to sialic acid-expressing cells (in words): effective in inhibiting binding
[1]; 160 mM carbohydrate
  Maximal inhibition of Ad37 binding in %: 79%

## Galβ3GalNAcβ4(NeuAcα8NeuAcα3)Galβ4Glcβ1 [NeuAc-GD1b]
Ad37 virus
  Ad37 virus binding to the structure: effective for Ad37 virus binding

## Mucin
[1]; 500 μM glycoprotein
  Maximal inhibition of Ad37 binding in %: 89%
[1]; [7]
  IC50: 8 µM
Adenoviral adhesion
  Inhibiting adenoviral adhesion: very effective

## Fetuin: sialylated glycoprotein
[1]; 500 μM glycoprotein
  Maximal inhibition of Ad37 binding in %: 62%
[1]; [7]
  IC50: 420 µM

## CC(=O)N[C@H]1[C@H]([C@H](O)[C@H](O)CO)O[C@@](OC[C@H]2O[C@@H](O[C@H]3[C@H](O)[C@@H](NC(C)=O)C(O)O[C@@H]3CO)[C@H](O)[C@@H](O)[C@H]2O)(C(=O)O)C[C@@H]1O (stereo partly drawn) [α-Neu-5Ac-(2-6)-β-D-Gal-(1-4)-D-GlcNAc]
[1]
  Inhibiting binding of Ad37 to sialic acid-expressing cells (in words): effective in inhibiting binding
[1]; [9]
  IC50: 7000 µM

## CC(=O)N[C@H]1[C@@H](O)[C@H](O)[C@@H](CO)O[C@@H]1O [acetyl mannose amine, reference compound]
[1]
  Interference with the binding of Ad37 to sialic acid expressing cells: did not interfere with the binding

## O=C[C@H](O)[C@@H](O)[C@@H](O)[C@H](O)CO [galactose, reference compound]
[1]
  Interference with the binding of Ad37 to sialic acid expressing cells: did not interfere with the binding

## GalNAcβ4(NeuAcα3)Galβ4Glcβ1 [NeuAcGM2]
Ad37 virus
  Ad37 virus binding to the structure: effective for Ad37 virus binding

## CC(=O)N[C@@H]1[C@@H](O)[C@H](O)[C@@H](CO)O[C@H]1O [acetyl glucose amine, reference compound]
[1]
  Interference with the binding of Ad37 to sialic acid expressing cells: did not interfere with the binding

B1: Glycophorin A: sialylated glycoprotein (protein, UniProt P02724 20-150, looked up)
Glycophorin-A: LSTTEVAMHTSTSSSVTKSYISSQTNDTHKRDTYAATPRAHEVSEISVRTVYPPEEETGERVQLAHHFSEPEITLIIFGVMAGVIGTILLISYGIRRLIKKSPSDVKPLPSPDTDVPLSSVEIENPETSDQ
[1]; 500 μM glycoprotein
  Maximal inhibition of Ad37 binding in %: 45%
[1]; [7]
  IC50: > 500 µM
